According to PubChem BioAssay (NCI):
“And” between values parts separate entries of the source, which are not always exact repeats. Equal entries are not always repeated.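 Where inhibition never reached the appropriate level, the endpoint shown equals the highest concentration tested. Otherwise, values were interpolated linearly from a five-concentration, 48-hour dose response in 96-well plates. GI50: concentration for 50% inhibition of growth. TGI: concentration producing complete growth inhibition.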

What was measured:
Test in all cases: DTP human tumour cell line panel, 48 h
[1] = tested on: 786-0 renal
[2] = tested on: A498 renal
[3] = tested on: A549 NSCLC
[4] = tested on: ACHN renal
[5] = tested on: CAKI-1 renal
[6] = tested on: CCRF-CEM leukemia
[7] = tested on: COLO 205 colon
[8] = tested on: DU-145 prostate
[9] = tested on: EKVX NSCLC
[10] = tested on: HCC-2998 colon
[11] = tested on: HCT-116 colon
[12] = tested on: HCT-15 colon
[13] = tested on: HL-60(TB) leukemia
[14] = tested on: HOP-62 NSCLC
[15] = tested on: HOP-92 NSCLC
[16] = tested on: HS 578T breast
[17] = tested on: HT29 colon
[18] = tested on: IGROV1 ovarian
[19] = tested on: K-562 leukemia
[20] = tested on: KM12 colon
[21] = tested on: LOX IMVI melanoma
[22] = tested on: M14 melanoma
[23] = tested on: MALME-3M melanoma
[24] = tested on: MCF7 breast
[25] = tested on: MDA-MB-231 breast
[26] = tested on: MDA-MB-435
[27] = tested on: MDA-N
[28] = tested on: MOLT-4 leukemia
[29] = tested on: NCI-H226 lung
[30] = tested on: NCI-H23 lung
[31] = tested on: NCI-H460 lung
[32] = tested on: NCI/ADR-RES ovarian
[33] = tested on: OVCAR-3 ovarian
[34] = tested on: OVCAR-4 ovarian
[35] = tested on: OVCAR-5 ovarian
[36] = tested on: OVCAR-8 ovarian
[37] = tested on: PC-3 prostate
[38] = tested on: RPMI-8226 leukemia
[39] = tested on: RXF 393 renal
[40] = tested on: SF-268 CNS
[41] = tested on: SF-295 CNS
[42] = tested on: SF-539 CNS
[43] = tested on: SK-MEL-2 melanoma
[44] = tested on: SK-MEL-28 melanoma
[45] = tested on: SK-OV-3 ovarian
[46] = tested on: SN12C renal
[47] = tested on: SNB-19 CNS
[48] = tested on: SNB-75 CNS
[49] = tested on: SR leukemia
[50] = tested on: SW-620 colon
[51] = tested on: T-47D breast
[52] = tested on: TK-10 renal
[53] = tested on: U251 CNS
[54] = tested on: UACC-257 melanoma
[55] = tested on: UACC-62 melanoma
[56] = tested on: UO-31 renal
[57] = tested on: BT-549 breast
[58] = tested on: NCI-H522 lung
[59] = tested on: SK-MEL-5 melanoma

[N-]=[N+]=CC(=O)OCC1NC(=O)C(COC(=O)C=[N+]=[N-])NC1=O (stereo unspecified)
TGI [1]: > 100 µM
TGI [2]: > 100 µM
TGI [3]: > 100 µM
TGI [4]: > 100 µM
TGI [5]: > 100 µM
TGI [6]: > 100 µM
TGI [7]: > 100 µM
TGI [8]: > 100 µM
TGI [9]: > 100 µM
TGI [10]: > 100 µM
TGI [11]: > 100 µM
TGI [12]: > 100 µM
TGI [13]: > 100 µM
TGI [14]: > 100 µM
TGI [15]: > 100 µM
TGI [16]: > 100 µM
TGI [17]: > 100 µM
TGI [18]: > 100 µM
TGI [19]: > 100 µM
TGI [20]: > 100 µM
TGI [21]: > 100 µM
TGI [22]: > 100 µM
TGI [23]: > 100 µM
TGI [24]: > 100 µM
TGI [25]: > 100 µM
TGI [26]: > 100 µM
TGI [27]: > 100 µM
TGI [28]: > 100 µM
TGI [29]: > 100 µM
TGI [30]: > 100 µM
TGI [31]: > 100 µM
TGI [32]: > 100 µM
TGI [33]: > 100 µM
TGI [34]: > 100 µM
TGI [35]: > 100 µM
TGI [36]: > 100 µM
TGI [37]: > 100 µM
TGI [38]: > 100 µM
GI50 [39]: 15.8 µM and > 100 µM
TGI [39]: > 100 µM
TGI [40]: > 100 µM
TGI [41]: > 100 µM
TGI [42]: > 100 µM
TGI [43]: > 100 µM
TGI [44]: > 100 µM
TGI [45]: > 100 µM
TGI [46]: > 100 µM
TGI [47]: > 100 µM
TGI [48]: > 100 µM
TGI [49]: > 100 µM
TGI [50]: > 100 µM
TGI [51]: > 100 µM
TGI [52]: > 100 µM
TGI [53]: > 100 µM
TGI [54]: > 100 µM
TGI [55]: > 100 µM
TGI [56]: > 100 µM

Nc1nc(N)c2ncn(-c3ccccc3)c2n1
TGI [1]: > 100 µM
TGI [2]: > 100 µM
TGI [3]: > 100 µM
TGI [4]: > 100 µM
TGI [57]: > 100 µM
TGI [5]: > 100 µM
TGI [6]: > 100 µM
TGI [7]: > 100 µM
TGI [8]: > 100 µM
GI50 [9]: 43.3 µM and 89.6 µM
TGI [9]: > 100 µM
TGI [10]: > 100 µM
TGI [11]: > 100 µM
TGI [12]: > 100 µM
TGI [14]: > 100 µM
TGI [15]: > 100 µM
TGI [16]: > 100 µM
TGI [17]: > 100 µM
TGI [18]: > 100 µM
TGI [20]: > 100 µM
TGI [21]: > 100 µM
TGI [22]: > 100 µM
TGI [23]: > 100 µM
TGI [24]: > 100 µM
TGI [25]: > 100 µM
TGI [26]: > 100 µM
TGI [27]: > 100 µM
TGI [28]: > 100 µM
TGI [29]: > 100 µM
TGI [30]: > 100 µM
TGI [58]: > 100 µM
TGI [32]: > 100 µM
TGI [33]: > 100 µM
GI50 [34]: 21.8 µM and > 100 µM
TGI [34]: > 100 µM
TGI [35]: > 100 µM
TGI [36]: > 100 µM
TGI [37]: > 100 µM
TGI [38]: > 100 µM
TGI [39]: > 100 µM
TGI [40]: > 100 µM
TGI [41]: > 100 µM
GI50 [42]: > 100 µM and 49.2 µM
TGI [42]: > 100 µM
TGI [43]: > 100 µM
TGI [44]: > 100 µM
TGI [59]: > 100 µM
TGI [45]: > 100 µM
TGI [46]: > 100 µM
TGI [47]: > 100 µM
TGI [50]: > 100 µM
TGI [51]: > 100 µM
TGI [52]: > 100 µM
TGI [53]: > 100 µM
TGI [54]: > 100 µM
TGI [55]: > 100 µM
TGI [56]: > 100 µM

N#CCC1C2CC3C(C2=O)C13 (stereo unspecified)
TGI [1]: > 100 µM
TGI [2]: > 100 µM
TGI [3]: > 100 µM
TGI [4]: > 100 µM
TGI [5]: > 100 µM
TGI [6]: > 100 µM
TGI [7]: > 100 µM
TGI [8]: > 100 µM
TGI [9]: > 100 µM
TGI [10]: > 100 µM
TGI [11]: > 100 µM
TGI [12]: > 100 µM
TGI [14]: > 100 µM
TGI [15]: > 100 µM
TGI [16]: > 100 µM
TGI [17]: > 100 µM
TGI [18]: > 100 µM
TGI [19]: > 100 µM
TGI [20]: > 100 µM
TGI [21]: > 100 µM
TGI [22]: > 100 µM
TGI [23]: > 100 µM
TGI [24]: > 100 µM
TGI [25]: > 100 µM
TGI [26]: > 100 µM
TGI [27]: > 100 µM
TGI [28]: > 100 µM
TGI [29]: > 100 µM
TGI [30]: > 100 µM
TGI [31]: > 100 µM
TGI [58]: > 100 µM
TGI [32]: > 100 µM
TGI [33]: > 100 µM
TGI [34]: > 100 µM
TGI [35]: > 100 µM
TGI [36]: > 100 µM
TGI [37]: > 100 µM
TGI [38]: > 100 µM
TGI [39]: > 100 µM
TGI [40]: > 100 µM
TGI [41]: > 100 µM
TGI [42]: > 100 µM
TGI [43]: > 100 µM
TGI [44]: > 100 µM
TGI [59]: > 100 µM
TGI [45]: > 100 µM
TGI [46]: > 100 µM
TGI [47]: > 100 µM
TGI [48]: > 100 µM
TGI [49]: > 100 µM
TGI [50]: > 100 µM
TGI [51]: > 100 µM
TGI [52]: > 100 µM
TGI [53]: > 100 µM
TGI [54]: > 100 µM
TGI [55]: > 100 µM
TGI [56]: > 100 µM
